# Marks after values point to notes of the source that are not given here.
# Columns and labels:
# Clostridium perfringens [1] = type: cell-based
# Clostridium perfringens [2] = settings: treatment group III
# [3] = tested on: Brachyspira hyodysenteriae; assay: MIC (single chelates and combinations)
# Escherichia coli = assay: MIC, liquid culture dilution (single chelates and cross-dilution combinations); type: cell-based
# Staphylococcus aureus = assay: MIC, liquid culture dilution; type: cell-based
# Streptococcus agalactiae = assay: MIC, liquid culture dilution; type: cell-based
# Salmonella enterica = assay: MIC, liquid culture dilution (single chelates and cross-dilution combinations); type: cell-based, Salmonella enterica subp. Enterica serovar enteritidis
# LACTIC ACID PRODUCERS = assay: MIC, liquid culture dilution; type: cell-based
# Saccharomyces cerevisiae = assay: MIC, liquid culture dilution; type: cell-based
# Lawsonia intracellularis = tested on: Lawsonia intracellularis
# Protocol: Experimental feeding was performed with growing pigs, under pilot environmental conditions with the animal paired methods on a stock infected with the pathogen Lawsonia intracellularis. The control group received the usual antibiotic supplement mixed into the feed.
# Clostridium perfringens [4] = tested on: Clostridium perfringens
# Micrococcus luteus = assay: MIC, liquid culture dilution; type: cell-based
# [5] = 1 kg/t in feed, 101 days of fattening
# [6] = vs antibiotic-supplemented control
compound,measurement,setting,value
[NH3+][Cu]1([NH3+])[O]C(=O)CN(CC(=O)O)CCN(CC(=O)O)CC(=O)[O]1 [Cu diamino ethylenediamine tetraacetic acid],Minimal inhibitory concentration (MIC),Clostridium perfringens [1],20 ppm
same,Egg yield increase compared to the negative control group,Clostridium perfringens [2],6.7%
same,Egg yield increase compared to the positive control group,Clostridium perfringens [2],22.4%
same,Total eggs,"Clostridium perfringens [2]; 36 hens, C. perfringens inoculated",1868 pc.
same,No. of eggs/hen,Clostridium perfringens [2]; C. perfringens inoculated,51.80
same,Total egg weight,Clostridium perfringens [2]; C. perfringens inoculated,125.70 kg
same,Weight of egg,Clostridium perfringens [2]; g/pc.,67.2 g
same,Minimal inhibitory concentration (MIC),[3],80 ppm
[NH3+][Cu]([NH3+])([O]C(=O)C(O)CC(=O)O)[O]C(=O)C(O)CC(=O)O (stereo not shown) [Cu diammine bis-malate],Minimal inhibitory concentration (MIC),Escherichia coli,262 ppm
same,Minimal inhibitory concentration (MIC),Staphylococcus aureus,262 ppm
same,Minimal inhibitory concentration (MIC),Streptococcus agalactiae,131 ppm
same,Minimal inhibitory concentration (MIC),Clostridium perfringens [1],65 ppm
same,Minimal inhibitory concentration (MIC),[3],143 ppm
O.O=C(O)CC(O)C(=O)[O-].O=C(O)CC(O)C(=O)[O-].[Cu+2] (stereo not shown) [Cu(H2O) bis-malate],Minimal inhibitory concentration (MIC),Escherichia coli,120 ppm
same,Minimal inhibitory concentration (MIC),Salmonella enterica,210 ppm
same,Minimal inhibitory concentration (MIC),Clostridium perfringens [1],50 ppm
same,Minimal inhibitory concentration (MIC),[3],88 ppm
O=C(O)CC(O)C(=O)[O-].O=C(O)CC(O)C(=O)[O-].[Zn+2] (stereo not shown) [Zn bis-malate],Minimal inhibitory concentration (MIC),Escherichia coli,280 ppm
same,Minimal inhibitory concentration (MIC),Salmonella enterica,360 ppm
same,Minimal inhibitory concentration (MIC),LACTIC ACID PRODUCERS,600 ppm
same,Minimal inhibitory concentration (MIC),Saccharomyces cerevisiae,600 ppm
C[C@H](N)C(=O)[O-].C[C@H](N)C(=O)[O-].O.[Zn+2] [Zn(H2O) bis-alaninate],Minimal inhibitory concentration (MIC),Escherichia coli,100 ppm
same,Minimal inhibitory concentration (MIC),Salmonella enterica,110 ppm
same,Minimal inhibitory concentration (MIC),Clostridium perfringens [1],>4000 ppm
same,Minimal inhibitory concentration (MIC),[3],>4000 ppm
NCC(=O)[O][Cu]([NH3+])([NH3+])[O]C(=O)CN [copper diammonium bis-glycinate],Added weight,Lawsonia intracellularis; [5],76.15 kg
same,Average slaughter weight,Lawsonia intracellularis; [5],107.01 kg
same,Feed utilization,Lawsonia intracellularis; [5],3.10 kg/kg
same,Added weight higher than control,Lawsonia intracellularis; [6],6.2%
same,Feed utilization better than control,Lawsonia intracellularis; [6],6.8%
same,Slaughter weight higher than control,Lawsonia intracellularis; [6],1.6%
same,Relative feed utilization,"Clostridium perfringens [4]; 1.0 kg/t in feed, 42 days",1.89 kg/kg
same,Total feed use,"Clostridium perfringens [4]; 1.0 kg/t in feed, 42 days",59 880 kg
same,Total living weight,"Clostridium perfringens [4]; 1.0 kg/t in feed, 42 days",32 395 kg
same,Total weight gain,"Clostridium perfringens [4]; 1.0 kg/t in feed, 42 days",31 681 kg
same,Chicken shipped,"Clostridium perfringens [4]; 1.0 kg/t in feed, 42 days, 17 100 chicks at start",16 238
same,Mean slaughter weight,"Clostridium perfringens [4]; 1.0 kg/t in feed, 42 days, difference significant at P ≤ 0.001",1995*** g
same,"Faeces, signs of diarrhea","Clostridium perfringens [4]; experimental group, observation",no signs of a change indicating diarrhea was visible
same,Adverse side effects,"Clostridium perfringens [4]; feeding the experimental composition, 1.0 kg/t",No adverse side effects were observed
same,"Chicken shipped, difference to control group",Clostridium perfringens [4]; vs unsupplemented control,4
same,"Relative feed utilization, difference to control group (less feed per unit live weight gain)",Clostridium perfringens [4]; vs unsupplemented control,3.6%
same,"Total feed use, difference to control group",Clostridium perfringens [4]; vs unsupplemented control,620 kg
Iron mono-glycinate,Minimal inhibitory concentration (MIC),Micrococcus luteus,100 ppm
same,Minimal inhibitory concentration (MIC),Escherichia coli,350 ppm
same,Minimal inhibitory concentration (MIC),Salmonella enterica,450 ppm
same,Minimal inhibitory concentration (MIC),LACTIC ACID PRODUCERS,1000 ppm
same,Minimal inhibitory concentration (MIC),Saccharomyces cerevisiae,1000 ppm
Zn malate [Zn(H2O)-bis-malate],Minimal inhibitory concentration (MIC),Escherichia coli,90 ppm
same,Minimal inhibitory concentration (MIC),Salmonella enterica,120 ppm
same,Minimal inhibitory concentration (MIC),LACTIC ACID PRODUCERS,500 ppm
same,Minimal inhibitory concentration (MIC),Saccharomyces cerevisiae,600 ppm
same,Minimal inhibitory concentration (MIC),Staphylococcus aureus,160 ppm
same,Minimal inhibitory concentration (MIC),Streptococcus agalactiae,180 ppm
same,Minimal inhibitory concentration (MIC),Clostridium perfringens [1],360 ppm
same,Minimal inhibitory concentration (MIC),[3],4400 ppm

# From US10821093B2, “Antibacterial microelement chelates and the use thereof in animal feeds” (priority 2012, dated 2020)
